Results reported in the NIST ThermoML archive (doi:10.1016/j.jct.2019.02.011).

Experiment: xn = mol fraction of the nth substance listed
Conditions: Liquid, Vibrating tube method

COC(=O)OC [dimethyl carbonate] + CO
mass density [kg/m3]
Conditions	100 kPa	5000 kPa	10000 kPa	15000 kPa	20000 kPa	25000 kPa	30000 kPa	35000 kPa	40000 kPa
288.15 K, x1 = 0.0253	810.84	815.18	819.54	823.48	827.53	831.19	834.68	838.22	841.6
288.15 K, x1 = 0.0503	824.62	828.97	833.29	837.23	841.29	844.9	848.4	851.95	855.33
288.15 K, x1 = 0.0745	837.24	841.59	845.92	849.88	853.93	857.55	861.06	864.56	867.95
288.15 K, x1 = 0.101	850.42	854.82	859.16	863.12	867.17	870.8	874.32	877.83	881.23
288.15 K, x1 = 0.1502	872.98	877.39	881.74	885.77	889.81	893.46	897.03	900.56	903.97
288.15 K, x1 = 0.2059	896.31	900.74	905.09	909.15	913.18	916.85	920.43	923.97	927.4
288.15 K, x1 = 0.25	913.24	917.63	921.99	926.05	930.08	933.76	937.36	940.91	944.34
288.15 K, x1 = 0.3004	930.93	935.33	939.69	943.77	947.8	951.49	955.1	958.61	962.05
288.15 K, x1 = 0.3426	944.7	949.1	953.42	957.51	961.53	965.18	968.8	972.32	975.72
288.15 K, x1 = 0.3984	961.49	965.91	970.23	974.34	978.3	981.96	985.59	989.12	992.53
288.15 K, x1 = 0.4514	976.13	980.55	984.83	988.95	992.91	996.58	1000.22	1003.71	1007.07
288.15 K, x1 = 0.5054	989.85	994.22	998.51	1002.64	1006.6	1010.28	1013.92	1017.42	1020.79
288.15 K, x1 = 0.5509	1000.55	1004.93	1009.17	1013.31	1017.27	1020.95	1024.6	1028.11	1031.49
288.15 K, x1 = 0.6002	1011.31	1015.7	1019.95	1024.09	1028.04	1031.69	1035.34	1038.85	1042.19
288.15 K, x1 = 0.6469	1020.74	1025.14	1029.39	1033.54	1037.49	1041.14	1044.75	1048.27	1051.61
288.15 K, x1 = 0.6993	1030.63	1035.03	1039.28	1043.44	1047.34	1051	1054.61	1058.08	1061.43
288.15 K, x1 = 0.7496	1039.53	1043.88	1048.14	1052.31	1056.2	1059.86	1063.48	1066.96	1070.31
288.15 K, x1 = 0.799	1047.69	1052.04	1056.25	1060.43	1064.32	1067.94	1071.56	1075.04	1078.4
288.15 K, x1 = 0.837	1053.71	1058.02	1062.23	1066.41	1070.3	1073.92	1077.55	1080.99	1084.34
288.15 K, x1 = 0.9093	1064.47	1068.78	1072.95	1077.14	1080.97	1084.6	1088.24	1091.68	1094.99
288.15 K, x1 = 0.9239	1066.51	1070.83	1074.99	1079.18	1083.02	1086.65	1090.28	1093.73	1097.04
288.15 K, x1 = 0.9575	1071.14	1075.46	1079.63	1083.83	1087.66	1091.29	1094.93	1098.38	1101.69
288.15 K, x1 = 0.9861	1074.98	1079.3	1083.47	1087.67	1091.5	1095.14	1098.78	1102.23	1105.55
288.15 K, x1 = 1	1076.83	1081.15	1085.32	1089.52	1093.35	1096.99	1100.63	1104.08	1107.4
293.15 K, x1 = 0.0253	805.71	810.46	814.95	–	–	–	–	–	–
293.15 K, x1 = 0.0503	819.38	824.13	828.58	–	–	–	–	–	–
293.15 K, x1 = 0.0745	831.94	836.69	841.14	–	–	–	–	–	–
293.15 K, x1 = 0.101	844.99	849.75	854.2	–	–	–	–	–	–
293.15 K, x1 = 0.1502	867.43	872.18	876.65	–	–	–	–	–	–
293.15 K, x1 = 0.2059	890.58	895.35	899.82	–	–	–	–	–	–
293.15 K, x1 = 0.25	907.39	912.16	–	–	–	–	–	–	–
293.15 K, x1 = 0.3004	925.01	929.73	–	–	–	–	–	–	–
293.15 K, x1 = 0.3426	938.66	943.38	–	–	–	–	–	–	–
293.15 K, x1 = 0.3984	955.38	960.11	–	–	–	–	–	–	–
293.15 K, x1 = 0.4514	969.9	974.63	–	–	–	–	–	–	–
293.15 K, x1 = 0.5054	983.54	988.23	–	–	–	–	–	–	–
293.15 K, x1 = 0.5509	994.14	998.83	–	–	–	–	–	–	–
293.15 K, x1 = 0.6002	1004.83	1009.48	–	–	–	–	–	–	–
293.15 K, x1 = 0.6469	1014.25	1018.9	–	–	–	–	–	–	–
293.15 K, x1 = 0.6993	1024.07	1028.72	–	–	–	–	–	–	–
293.15 K, x1 = 0.7496	1032.91	1037.51	–	–	–	–	–	–	–
293.15 K, x1 = 0.799	1041.06	1045.66	–	–	–	–	–	–	–
293.15 K, x1 = 0.837	1047.02	1051.63	–	–	–	–	–	–	–
293.15 K, x1 = 0.9093	1057.71	1062.27	–	–	–	–	–	–	–
293.15 K, x1 = 0.9239	1059.75	1064.31	–	–	–	–	–	–	–
293.15 K, x1 = 0.9575	1064.38	1068.94	–	–	–	–	–	–	–
293.15 K, x1 = 0.9861	1068.22	1072.78	–	–	–	–	–	–	–
293.15 K, x1 = 1	1070.06	1074.62	–	–	–	–	–	–	–
